Measurements published in US20250179108A1, “UTILITY OF NEMATODE SMALL MOLECULES” (California Institute of Technology, priority 2011, published 2025).
Entries after “also recorded” stand apart in the source; their conditions may differ.

Key:
[1] = tested on: males from many of the nematode species tested; test: Attraction assay, males of different nematode species; assay type: in vivo; conditions: 1 nM, 1 μM and 1 mM tested
Experimental: FIG. 5A depicts, in accordance with an embodiment herein, that ascarosides mediate behavior of nematode species from diverse generas. Species that were amenable to test in the attraction assay (sufficient movement, unbiased direction, reproducible controls) were scored for attraction or repulsion toward three concentrations (1 mM, 1 μM, and 1 nM: from left to right) of 13 different ascarosides. Pvalues were determined using the Student's t-test with a P<0.05. The score “0” represents any findings where P>0.05.
(§1) To investigate the biological function of the ascarosides identified in the MS screen, the inventors used a bioassay (FIGS. 1A-1C) to measure attraction of different nematode species to a wide range of ascaroside concentrations (1 nM, 1 μM, and 1 mM). For these bioassays, nematode species had to fulfill several requirements, such as sufficient movement on bacterial lawns, low tendency to aggregate, easy to grow, and generally reproducible locomotive behavior. This study was limited to a survey of males from different species, because males tended to move much more evenly across our bioassay lawn than females and hermaphrodites (with the exception of P. redivivus females, which move well and were therefore in this study.)
(§2) OP50 E. coli is grown on a standard 5 cm agar plate (made with standard Nematode Growth Medium). The bacterial lawn is 16 mm in diameter and is grown overnight at 20C before being used in trials. Two 4-mm spots ([…]) were placed on opposite sides of the bacterial lawn (using a transparent template to guide spot placement) and several minutes elapsed for the liquid to settle in before placing nematodes down on the assay. Recording began immediately upon worm placement. […] of the control was placed on one side of the lawn and […] of the experimental cue was placed on the other side of the lawn, changing the location of the cue throughout trials, between left/right and top/bottom to avoid bias. Nematodes were isolated by gender at the L4 stage the day before being used in trials as developed adults. Five worms were each placed at two points equidistant from the foci of the scoring region (ten total). Trials were recorded for 20 minutes and frames were collected for analysis at 1 frame per second. Results were averaged from at least three different trials. For every nematode species in this study, the inventors tested different total number of worms (using water in both scoring regions) to determine the minimum number of worms necessary for consistent unbiased results over a 20-minute trial. The total number of worms used in the multiple species assays depending on that species' optimal parameters. 10 worms were for P. redivivus males and females, 20 worms were used for C. elegans males, O. dolichuridae males, and C. sp7 males and 14 worms were used forS. glaseri males.
A video camera attached to the microscope produces a digital video stream, which is then analyzed. The ratio of time the average worm spends in each region of interest is calculated for every trial. For ease of implementation, it was assumed that all worms in a single experiment are roughly the same size. Thus, worm pixels were counted instead of whole worms, allowing the inventors to take into account fractions of a worm in the region of interest. It also eliminated the need for a shape-based worm identification algorithm, and allowed each frame to be analyzed independently. The inventors applied a band-pass filter to each frame to eliminate the effect of uneven lighting and also accentuate the worms against the background. The worm was then identified after thresholding the filtered image. Throughout each experiment, the inventors know the locations and sizes of the regions of interest. Through the filtering described above, the inventors know which pixels are occupied by worms and which ones are not. They are then able to calculate the ratio of worm-pixels to all pixels inside the region of interest to produce the worm- occupancy ratio. […]

[2] = tested on: C. elegans; conditions: cited from earlier work
[3] = tested on: asthmatic mice; test: Ovalbumin induction of asthma, allergic airway inflammation in mice; assay type: in vivo; conditions: for eosinophils / mucus hyper-production / cellular infiltration into the lungs: asthmatic mice; for cellular infiltration into the lungs: lung histology
Experimental: FIG. 7A depicts, in accordance with an embodiment herein, sensitization with OVA+ Control/Alum (N=3) and sensitization with OVA+NES/Alum (N=3), in Nippostrongylus brasiliensis. The experimental model is ovalbumin inducation of asthma. […] No worm, living or dead, is introduced into the asthma model. Furthermore, proteins were eliminated by denaturing at 100C for 25 minutes, and filtering through a 10 kDa filter. FIGS. 7B-7D depict the histology of mice treated with NES.
The effects of ascarosides are examined for an allergic airway inflammation.

[4] = tested on: P. redivivus females; test: Repulsion scoring by behavioral response (immediate exit of the conditioned region); assay type: in vivo, Panagrellus redivivus; conditions: high concentrations
Text: The inventors thus used a separate method for scoring repulsion that focused on behavioral response rather than time spent in each region.

[5] = tested on: P. redivivus males; test: Attraction assay, Panagrellus redivivus males; assay type: in vivo
Experimental: (§3) FIG. 1A depicts, in accordance with an embodiment herein, a chemoattraction assay to reveal a gender specific mate finding cue in Panagrellus redivivus. A transparent template is attached below a 5-cm plate with a 16-mm bacterial lawn to delineate two scoring regions into which 0.6μL of the experimental sample and control sample are placed. Ten P. redivivus males are placed at points equidistant from the two scoring regions and the plate is recorded for 20 minutes (at a rate of 1 frame per second).
(§4) FIG. 1B depict attraction measured using software that computes the ratio of worm-pixels to total pixels for each scoring region.
(§5) FIG. 1C that the output is a plot of worm occupancy ratio vs. time for both scoring regions. The shown graph indicates strong attraction of P. redivivus males to the experimental sample. FIG. 2A depicts, in accordance with an embodiment herein, purification of the female sex pheromone in Panagrellus redivivus.
OP50 E. coli is grown on a standard 5 cm agar plate (made with standard Nematode Growth Medium). The bacterial lawn is 16 mm in diameter and is grown overnight at 20C before being used in trials. Two 4-mm spots ([…]) were placed on opposite sides of the bacterial lawn (using a transparent template to guide spot placement) and several minutes elapsed for the liquid to settle in before placing nematodes down on the assay. Recording began immediately upon worm placement. […] Trials were recorded for 20 minutes and frames were collected for analysis at 1 frame per second. […]
(§6) A video camera attached to the microscope produces a digital video stream, which is then analyzed. The ratio of time the average worm spends in each region of interest is calculated for every trial. […] Thus, worm pixels were counted instead of whole worms, allowing the inventors to take into account fractions of a worm in the region of interest. It also eliminated the need for a shape-based worm identification algorithm, and allowed each frame to be analyzed independently. […]

[6] = tested on: P. redivivus females; test: Attraction assay, Panagrellus redivivus females; assay type: in vivo
Experimental: as §3, §4, §5
as §2, with “The total number of worms used in the multiple species assays depending on that species' optimal parameters. 10 worms were for P. redivivus males and females, 20 worms were used for C. elegans males, O. dolichuridae males, and C. sp7 males and 14 worms were used forS. glaseri males.” left out
as §6

[7] = tested on: C. elegans males; conditions: reduced attraction at high concentrations; cited from earlier work
[8] = tested on: C. elegans males; test: Attraction assay, C. elegans males; assay type: in vivo, Caenorhabditis elegans; conditions: tested at 1 nM, 1 μM and 1 mM
Experimental: as §1
OP50 E. coli is grown on a standard 5 cm agar plate (made with standard Nematode Growth Medium). […] Trials were recorded for 20 minutes and frames were collected for analysis at 1 frame per second. […]
as §6

[9] = any of the tested concentrations

Row | SMILES | attraction of males [1] | eosinophils [3] | mucus hyper-production [3] | cellular infiltration into the lungs [3] | also measured
1 | CC1O[C@@H](O[C@H](C)CCCCC(=O)O)C(O)C[C@H]1O (single isomer, unassigned; (-)) [ascr #1, (−) 6-(3,5-dihydroxy-6-methyltetrahydropyran-2-yloxy) heptanoic acid] | attracted | reduction | decreased | decreased | induction of diapause (dauer) [2]: weakly induces diapause; eosinophils ([3]; listed as Ascr #1): some effect; female repulsion, immediate exit of the conditioned region before entering a full worm's length [4]: significantly repelled; male attraction (Attraction Bioassay) ([5]; P. redivivus males): strongly attracted; also recorded: full male attraction; female attraction [6, 9]: not attracted; female attraction ([6]; between 100 and 106 fmol, FIG. 2E): not attracted; female repulsion, semi-automated scoring method ([6]; time spent in each region): not significantly repelled
2 | CC(=O)CCCC(C)OC1OC(C)C(O)CC1O (centres unmarked) [ascr #2] | – | – | – | – | male response to hermaphroditic sex pheromones [7]: biphasic response
3 | CC1O[C@@H](O[C@H](C)CCCC/C=C/C(=O)O)[C@@H](O)C[C@H]1O (some centres unmarked) [ascr #3] | attracted | reduction; also recorded: some effect | decreased | decreased | male response to hermaphroditic sex pheromones [7]: biphasic response
4 | C[C@H](CC/C=C/C(=O)O)O[C@@H]1O[C@@H](C)[C@H](O)C[C@H]1O [ascr #7] | attracted | reduction; also recorded: markedly reduced | decreased | decreased | effect on allergic airway inflammation ([3]; synthesized ascarosides tested individually, FIG. 10B): inhibitory effect; male attraction ([5]; 1 mM and 1 μM): attracted; male response (attraction) [8]: only respond to 1 mM
5 | C[C@H](CC/C=C/C(=O)Nc1ccc(C(=O)O)cc1)O[C@@H]1O[C@@H](C)[C@H](O)C[C@H]1O [ascr #8] | attracted | – | – | – | –
6 | CC1O[C@@H](O[C@H](C)CCC(=O)O)[C@@H](O)C[C@H]1O (some centres unmarked) [ascr #9] | attracted | – | – | – | –
7 | CC1O[C@@H](O[C@H](C)CCCCCCC(=O)O)[C@@H](O)C[C@H]1O (some centres unmarked) [ascr #10] | attracted | – | – | – | male attraction ([5]; very high, nonphysiological concentration of 1 mM): some attraction; female attraction [6, 9]: do not respond
